Starred links: 1 amine or outer side, 2 acyl side, 3 side chain; linkers in the order of their positions; H or OH if unused. Positions of bridges follow the written chain, without caps; N, C: chain ends. Non-standard residues stand in square brackets, D forms with d. Residues, ends and D or L forms follow the SMILES beside them. *: point of attachment. hPhe(3-Cl-4-CF3) = N[C@@H](CCc1ccc(C(F)(F)F)c(Cl)c1)C(=O)O; NMePhe(4-CF3) = CN[C@@H](Cc1ccc(C(F)(F)F)cc1)C(=O)O; X25 = CN([C@@H](Cc1ccc(C(F)F)cc1)C(=O)[*:2])[*:1]; hPhe(4-CF3) = N[C@@H](CCc1ccc(C(F)(F)F)cc1)C(=O)O; 3Oxa8azabicyclo(3.2.1)octane = C1CC2COCC1N2*; NMePhe(4-Me) = CN[C@@H](Cc1ccc(C)cc1)C(=O)O; hPhe(4-Cl) = N[C@@H](CCc1ccc(Cl)cc1)C(=O)O; NMeAla(cPent) = CN[C@@H](CC1CCCC1)C(=O)O; NMeGly(cPent) = CN[C@H](C(=O)O)C1CCCC1; NMeCha = CN[C@@H](CC1CCCCC1)C(=O)O; NMeChg = CN[C@H](C(=O)O)C1CCCCC1; NMeI = CC[C@H](C)[C@H](NC)C(=O)O; N(CH2CH2)2CF2 = FC1(F)CCN(*)CC1; NMeD = CN[C@@H](CC(=O)O)C(=O)O; NMeL = CN[C@@H](CC(C)C)C(=O)O; NMeNva = CCC[C@H](NC)C(=O)O; NMeV = CN[C@H](C(=O)O)C(C)C; NMeAbu = CC[C@H](NC)C(=O)O; NMeS = CN[C@@H](CO)C(=O)O; Morpholide = C1CN(*)CCO1; NMeA = CN[C@@H](C)C(=O)O; Pyrrolidide = C1CCN(*)C1; Ac5c = NC1(C(=O)O)CCCC1; Aze = O=C(O)[C@@H]1CCN1; Ac4c = NC1(C(=O)O)CCC1; Sar = CNCC(=O)O; Propyl = CCC*
What was measured:
[1] = tested on: Human pancreatic cancer cell line AsPC-1; experiment: Measurement of AsPC-1 cell growth inhibition (AsPC-1 CGI); type: cell-based; conditions: 96 h
Procedure, shortened: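 AsPC-1 cells in 15% FBS RPMI-1640 were exposed to test compound for 96 hours at 37° C, with CellTiter-Glo as endpoint.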

[2] = biological target: T1, Kras and SOS1 (biotin-tagged human Kras loaded with GDP, His-tagged human SOS1) (Homo sapiens, UniProt P01116, G12D); experiment: Protein-protein interaction inhibition between Kras and SOS1 (KrasGl2D-SOS PPI) using AlphaScreen; type: binding; conditions: AlphaScreen; biotin-tagged human Kras loaded with GDP, His-tagged human SOS1; read-out: KRAS G12D-SOS PPI IC50
T1 construct: made in house; host or cells: E. coli (stated for Kras only)
T1 sequence (P01116 1-188 isoform P01116-2 G12D): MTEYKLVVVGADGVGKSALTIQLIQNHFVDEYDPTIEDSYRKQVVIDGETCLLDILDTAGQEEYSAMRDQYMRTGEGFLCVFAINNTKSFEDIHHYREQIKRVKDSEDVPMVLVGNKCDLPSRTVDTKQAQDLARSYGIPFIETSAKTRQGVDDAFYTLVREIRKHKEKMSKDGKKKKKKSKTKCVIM
Procedure, shortened: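 Energy transfer from nickel-chelate donor beads bound to His-SOS1 to streptavidin acceptor beads bound to biotin-Kras, expressed in E. coli and loaded with GDP after purification, was monitored. Donors were excited at 680 nm; singlet oxygen reaching acceptors gave emission read at 520-620 nm.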

SMILES	IC50 [1] [nM]	IC50 [2] [nM]
CCCOC[C@H]1C(=O)N(C)CC(=O)N[C@@H](CCc2ccc(C(F)(F)F)c(Cl)c2)C(=O)N2CCC[C@H]2C(=O)NC2(CCCC2)C(=O)N(C)[C@@H](C2CCCCC2)C(=O)N(C)[C@H](C(=O)N2CCCC2)CC(=O)N(C)[C@@H](CC)C(=O)N[C@@H]([C@@H](C)CC)C(=O)N(C)CC(=O)N(C)CC(=O)N1C [Compound 1929] ([NMeAbu]I[Sar][Sar][NMeS](Propyl)[Sar][hPhe(3-Cl-4-CF3)]P[Ac5c][NMeChg][NMeD]-Pyrrolidide; lactam N-11)	100 to 500	0.61
CC[C@H](C)[C@@H]1NC(=O)[C@H](CC(C)C)N(C)C(=O)C[C@@H](C(=O)N(C)C)N(C)C(=O)[C@H]([C@@H](C)CC)N(C)C(=O)C2(CCCC2)NC(=O)[C@H](Cc2ccc(C(F)F)cc2)N(C)C(=O)[C@H](CCc2ccc(C(F)(F)F)c(Cl)c2)NC(=O)CN(C)C(=O)[C@H](Cc2ccc(C)cc2)N(C)C(=O)[C@@H]2CCN2C(=O)[C@H](C)N(C)C1=O [Compound 1930] ([NMeL]I[NMeA][Aze][NMePhe(4-Me)][Sar][hPhe(3-Cl-4-CF3)][X25][Ac5c][NMeI][NMeD]-NMe2; lactam N-11)	20 to 50	3.6
CC[C@H](C)[C@@H]1NC(=O)[C@H](CC)N(C)C(=O)C[C@@H](C(=O)N2CCCC2)N(C)C(=O)[C@H](C2CCCCC2)N(C)C(=O)C2(CCCC2)NC(=O)[C@@H]2CCCN2C(=O)[C@H](CCc2ccc(C(F)(F)F)c(Cl)c2)NC(=O)CN(C)C(=O)[C@H](CC2CCCC2)N(C)C(=O)CN(C)C(=O)CN(C)C1=O [Compound 1931] ([NMeAbu]I[Sar][Sar][NMeAla(cPent)][Sar][hPhe(3-Cl-4-CF3)]P[Ac5c][NMeChg][NMeD]-Pyrrolidide; lactam N-11)	100 to 500	0.56
CC[C@H](C)[C@@H]1NC(=O)[C@H](CC(C)C)N(C)C(=O)C[C@@H](C(=O)N2C3CCC2COC3)N(C)C(=O)[C@H](C2CCCCC2)N(C)C(=O)C2(CCCC2)NC(=O)[C@@H]2CCCN2C(=O)[C@H](CCc2ccc(C(F)(F)F)c(Cl)c2)NC(=O)CN(C)C(=O)[C@H](Cc2ccc(C(F)(F)F)cc2)N(C)C(=O)CN(C)C(=O)CN(C)C1=O [Compound 1932] ([NMeL]I[Sar][Sar][NMePhe(4-CF3)][Sar][hPhe(3-Cl-4-CF3)]P[Ac5c][NMeChg][NMeD]-{3Oxa8azabicyclo(3.2.1)octane}; lactam N-11)	50 to 100	1.1
CCC[C@H]1C(=O)N[C@@H]([C@@H](C)CC)C(=O)N(C)CC(=O)N(C)CC(=O)N(C)[C@@H](CC2CCCCC2)C(=O)N(C)CC(=O)N[C@@H](CCc2ccc(C(F)(F)F)c(Cl)c2)C(=O)N2CCC[C@H]2C(=O)NC2(CCCC2)C(=O)N(C)[C@@H](C2CCCCC2)C(=O)N(C)[C@H](C(=O)N2C3CCC2COC3)CC(=O)N1C [Compound 1933] ([NMeNva]I[Sar][Sar][NMeCha][Sar][hPhe(3-Cl-4-CF3)]P[Ac5c][NMeChg][NMeD]-{3Oxa8azabicyclo(3.2.1)octane}; lactam N-11)	50 to 100	0.59
CC[C@H](C)[C@@H]1NC(=O)[C@H](CC(C)C)N(C)C(=O)C[C@@H](C(=O)N2CCOCC2)N(C)C(=O)[C@H](C(C)C)N(C)C(=O)C2(CCCC2)NC(=O)[C@@H]2CCCN2C(=O)[C@H](CCc2ccc(C(F)(F)F)c(Cl)c2)NC(=O)CN(C)C(=O)[C@H](CC2CCCCC2)N(C)C(=O)CN(C)C(=O)CN(C)C1=O [Compound 1934] ([NMeL]I[Sar][Sar][NMeCha][Sar][hPhe(3-Cl-4-CF3)]P[Ac5c][NMeV][NMeD]-Morpholide; lactam N-11)	100 to 500	1
CC[C@H](C)[C@@H]1NC(=O)[C@H](CC(C)C)N(C)C(=O)C[C@@H](C(=O)N2C3CCC2COC3)N(C)C(=O)[C@H](C2CCCCC2)N(C)C(=O)C2(CCC2)NC(=O)[C@@H]2CCCN2C(=O)[C@H](CCc2ccc(C(F)(F)F)c(Cl)c2)NC(=O)CN(C)C(=O)[C@H](CC2CCCCC2)N(C)C(=O)CN(C)C(=O)CN(C)C1=O [Compound 1936] ([NMeL]I[Sar][Sar][NMeCha][Sar][hPhe(3-Cl-4-CF3)]P[Ac4c][NMeChg][NMeD]-{3Oxa8azabicyclo(3.2.1)octane}; lactam N-11)	20 to 50	0.68
CC[C@H](C)[C@@H]1NC(=O)[C@H](CC(C)C)N(C)C(=O)C[C@@H](C(=O)N2C3CCC2COC3)N(C)C(=O)[C@H]([C@@H](C)CC)N(C)C(=O)C2(CCCC2)NC(=O)[C@@H]2CCCN2C(=O)[C@H](CCc2ccc(C(F)(F)F)c(Cl)c2)NC(=O)CN(C)C(=O)[C@H](CC2CCCCC2)N(C)C(=O)CN(C)C(=O)CN(C)C1=O [Compound 1938] ([NMeL]I[Sar][Sar][NMeCha][Sar][hPhe(3-Cl-4-CF3)]P[Ac5c][NMeI][NMeD]-{3Oxa8azabicyclo(3.2.1)octane}; lactam N-11)	20 to 50	0.76
CC[C@H](C)[C@@H]1NC(=O)[C@H](CC(C)C)N(C)C(=O)C[C@@H](C(=O)N2CCCC2)N(C)C(=O)[C@H](C2CCCCC2)N(C)C(=O)C2(CCCC2)NC(=O)[C@@H]2CCCN2C(=O)[C@H](CCc2ccc(C(F)(F)F)cc2)NC(=O)CN(C)C(=O)[C@H](CC2CCCCC2)N(C)C(=O)CN(C)C(=O)CN(C)C1=O [Compound 1939] ([NMeL]I[Sar][Sar][NMeCha][Sar][hPhe(4-CF3)]P[Ac5c][NMeChg][NMeD]-Pyrrolidide; lactam N-11)	100 to 500	0.71
CC[C@H](C)[C@@H]1NC(=O)[C@H](CC(C)C)N(C)C(=O)C[C@@H](C(=O)N2C3CCC2COC3)N(C)C(=O)[C@H](C2CCCCC2)N(C)C(=O)C2(CCCC2)NC(=O)[C@@H]2CCCN2C(=O)[C@H](CCc2ccc(C(F)(F)F)cc2)NC(=O)CN(C)C(=O)[C@H](CC2CCCCC2)N(C)C(=O)CN(C)C(=O)CN(C)C1=O [Compound 1940] ([NMeL]I[Sar][Sar][NMeCha][Sar][hPhe(4-CF3)]P[Ac5c][NMeChg][NMeD]-{3Oxa8azabicyclo(3.2.1)octane}; lactam N-11)	100 to 500	1.6
CC[C@H](C)[C@@H]1NC(=O)[C@H](CC(C)C)N(C)C(=O)C[C@@H](C(=O)N2CCOCC2)N(C)C(=O)[C@H](C2CCCCC2)N(C)C(=O)C2(CCCC2)NC(=O)[C@@H]2CCCN2C(=O)[C@H](CCc2ccc(Cl)cc2)NC(=O)CN(C)C(=O)[C@H](CC2CCCCC2)N(C)C(=O)CN(C)C(=O)CN(C)C1=O [Compound 1941] ([NMeL]I[Sar][Sar][NMeCha][Sar][hPhe(4-Cl)]P[Ac5c][NMeChg][NMeD]-Morpholide; lactam N-11)	50 to 100	1.5
CC[C@H](C)[C@@H]1NC(=O)[C@H](CC(C)C)N(C)C(=O)C[C@@H](C(=O)N2CCOCC2)N(C)C(=O)[C@H](C2CCCCC2)N(C)C(=O)C2(CCCC2)NC(=O)[C@@H]2CCCN2C(=O)[C@H](CCc2ccc(C(F)(F)F)cc2)NC(=O)CN(C)C(=O)[C@H](CC2CCCCC2)N(C)C(=O)CN(C)C(=O)CN(C)C1=O [Compound 1947] ([NMeL]I[Sar][Sar][NMeCha][Sar][hPhe(4-CF3)]P[Ac5c][NMeChg][NMeD]-Morpholide; lactam N-11)	50 to 100	1.2
CC[C@H](C)[C@@H]1NC(=O)[C@H](CC(C)C)N(C)C(=O)C[C@@H](C(=O)N2CCOCC2)N(C)C(=O)[C@H](C2CCCCC2)N(C)C(=O)C2(CCCC2)NC(=O)[C@@H]2CCCN2C(=O)[C@H](CCc2ccc(C(F)(F)F)c(Cl)c2)NC(=O)CN(C)C(=O)[C@H](Cc2ccc(C(F)(F)F)cc2)N(C)C(=O)CN(C)C(=O)CN(C)C1=O [Compound 1948] ([NMeL]I[Sar][Sar][NMePhe(4-CF3)][Sar][hPhe(3-Cl-4-CF3)]P[Ac5c][NMeChg][NMeD]-Morpholide; lactam N-11)	20 to 50	0.54
CCCOC[C@H]1C(=O)N(C)CC(=O)N[C@@H](CCc2ccc(C(F)(F)F)c(Cl)c2)C(=O)N2CCC[C@H]2C(=O)NC2(CCCC2)C(=O)N(C)[C@@H](C2CCCCC2)C(=O)N(C)[C@H](C(=O)N2CCOCC2)CC(=O)N(C)[C@@H](CCC)C(=O)N[C@@H]([C@@H](C)CC)C(=O)N(C)CC(=O)N(C)CC(=O)N1C [Compound 1949] ([NMeNva]I[Sar][Sar][NMeS](Propyl)[Sar][hPhe(3-Cl-4-CF3)]P[Ac5c][NMeChg][NMeD]-Morpholide; lactam N-11)	100 to 500	0.6
CC[C@H](C)[C@@H]1NC(=O)[C@H](CC(C)C)N(C)C(=O)C[C@@H](C(=O)N2C3CCC2COC3)N(C)C(=O)[C@H](C2CCCCC2)N(C)C(=O)C2(CCCC2)NC(=O)[C@@H]2CCCN2C(=O)[C@H](CCc2ccc(Cl)cc2)NC(=O)CN(C)C(=O)[C@H](CC2CCCCC2)N(C)C(=O)CN(C)C(=O)CN(C)C1=O [Compound 1950] ([NMeL]I[Sar][Sar][NMeCha][Sar][hPhe(4-Cl)]P[Ac5c][NMeChg][NMeD]-{3Oxa8azabicyclo(3.2.1)octane}; lactam N-11)	20 to 50	2.8
CC[C@H](C)[C@@H]1NC(=O)[C@H](CC(C)C)N(C)C(=O)C[C@@H](C(=O)N2C3CCC2COC3)N(C)C(=O)[C@H](C(C)C)N(C)C(=O)C2(CCCC2)NC(=O)[C@@H]2CCCN2C(=O)[C@H](CCc2ccc(C(F)(F)F)c(Cl)c2)NC(=O)CN(C)C(=O)[C@H](CC2CCCCC2)N(C)C(=O)CN(C)C(=O)CN(C)C1=O [Compound 1954] ([NMeL]I[Sar][Sar][NMeCha][Sar][hPhe(3-Cl-4-CF3)]P[Ac5c][NMeV][NMeD]-{3Oxa8azabicyclo(3.2.1)octane}; lactam N-11)	100 to 500	2.3
CC[C@H](C)[C@@H]1NC(=O)[C@H](CC(C)C)N(C)C(=O)C[C@@H](C(=O)N(C)C)N(C)C(=O)[C@H](C2CCCC2)N(C)C(=O)C2(CCCC2)NC(=O)[C@H](CC(=O)N2CCC(F)(F)CC2)N(C)C(=O)[C@H](CCc2ccc(C(F)(F)F)c(Cl)c2)NC(=O)CN(C)C(=O)[C@H](CC2CCCCC2)N(C)C(=O)[C@@H]2CCN2C(=O)[C@H](C)N(C)C1=O [Compound 1955] ([NMeL]I[NMeA][Aze][NMeCha][Sar][hPhe(3-Cl-4-CF3)][NMeD](N(CH2CH2)2CF2)[Ac5c][NMeGly(cPent)][NMeD]-NMe2; lactam N-11)	100 to 500	1.5

Reference: patent publication US12371454B2, “Cyclic peptide compound having Kras inhibitory action” (priority 2019, dated 2025)
